Among the data in patent publication US9242996B2 (Novartis AG, priority 2013, dated 2016) are IC50 values, retold here.

Sequence of activated ERK2 (P28482 whole entry): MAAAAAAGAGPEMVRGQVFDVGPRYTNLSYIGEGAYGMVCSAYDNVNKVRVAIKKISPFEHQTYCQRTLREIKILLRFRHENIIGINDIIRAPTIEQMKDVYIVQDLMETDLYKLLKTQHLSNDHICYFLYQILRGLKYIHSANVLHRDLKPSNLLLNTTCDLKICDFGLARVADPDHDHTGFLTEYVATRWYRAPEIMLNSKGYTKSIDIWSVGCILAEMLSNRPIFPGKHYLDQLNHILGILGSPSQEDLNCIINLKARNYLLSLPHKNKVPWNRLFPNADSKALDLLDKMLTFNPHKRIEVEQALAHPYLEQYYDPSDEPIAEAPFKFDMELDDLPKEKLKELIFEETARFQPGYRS

The assay concerns the target activated ERK2 (Homo sapiens (Human), UniProt P28482). As to the kind of experiment: Activated ERK2 (20 pM) Kinase Assay (AlphaScreen, ERKtide phosphorylation). It is filed as biochemical. The conditions noted are these: 0.02 nM ERK2, 400 nM ERKtide peptide, 35 μM ATP, 30 min preincubation. The essentials: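 AlphaScreen read-out (anti-phospho-EGFR Thr669 antibody, protein A acceptor/streptavidin donor beads) of ERKtide (400 nM) phosphorylation by 20 pM activated ERK2 at 35 μM ATP.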
Take `CSc1cccc([C@@H](CO)NC(=O)c2ccc(-c3nc([C@H]4CC[C@H](O)CC4)cnc3N)cc2F)c1` [Example 388, 4-(3-amino-6-((1r,4S)-4-hydroxy-cyclohexyl)pyrazin-2-yl)-2-fluoro-N-((S)-2-hydroxy-1-(3-(methylthio)phenyl)ethyl)benzamide]: 0.0269 nM corresponded to half-maximal inhibition (IC50).

As to `Nc1ncc(C2CCOCC2)nc1-c1ccc(C(=O)N[C@H](CO)c2cc(F)cc(CCl)c2)c(F)c1` [Example 390, (S)-4-(3-amino-6-(tetrahydro-2H-pyran-4-yl)pyrazin-2-yl)-N-(1-(3-(chloromethyl)-5-fluorophenyl)-2-hydroxyethyl)-2-fluorobenzamide], half-maximal inhibition (IC50) was put at 0.0242 nM.

Turning to `CSc1cc(F)cc([C@@H](CO)NC(=O)c2ccc(-c3cc(-c4cn(C)nc4C)cnc3N)cc2F)c1` [Example 394, (S)-4-(2-amino-5-(1,3-dimethyl-1H-pyrazol-4-yl)pyridin-3-yl)-2-fluoro-N-(1-(3-fluoro-5-(methylthio)phenyl)-2-hydroxyethyl) benzamide], the IC50 (usually the concentration at which inhibition is half-maximal) turned out to be 0.0153 nM.

In turn, `CSc1cc(F)cc([C@@H](CO)NC(=O)c2ccc(-c3nc(C4CCOCC4)cnc3N)cc2F)c1` [Example 395, (S)-4-(3-amino-6-(tetrahydro-2H-pyran-4-yl)pyrazin-2-yl)-2-fluoro-N-(1-(3-fluoro-5-(methylthio)phenyl)-2-hydroxyethyl) benzamide] returned an IC50 of 0.00827 nM.

Turning to `CSc1cc(F)cc([C@@H](CO)NC(=O)c2ccc(-c3nc([C@H]4CC[C@H](O)CC4)cnc3N)cc2F)c1` [Example 396, 4-(3-amino-6-((1r,4S)-4-hydroxy-cyclohexyl)pyrazin-2-yl)-2-fluoro-N-((S)-1-(3-fluoro-5-(methylthio)phenyl)-2-hydroxyethyl) benzamide], it took 0.0198 nM to reach half-maximal inhibition (IC50).

`C[C@@H](O)[C@@H](NC(=O)c1ccc(-c2nc([C@H]3CC[C@H](O)CC3)cnc2N)cc1F)c1cccc(Cl)c1` [Example 398, 4-(3-amino-6-((1r,4S)-4-hydroxy-cyclohexyl)pyrazin-2-yl)-N-((1S,2R)-1-(3-chlorophenyl)-2-hydroxypropyl)-2-fluorobenzamide]: the IC50 was 0.281 nM.

With `CNC[C@@H](NC(=O)c1ccc(-c2nc([C@H]3CC[C@H](O)CC3)cnc2N)cc1F)c1cccc(Cl)c1` [Example 401, 4-(3-amino-6-((1r,4S)-4-hydroxy-cyclohexyl)pyrazin-2-yl)-N-((S)-1-(3-chlorophenyl)-2-(methylamino)ethyl)-2-fluorobenzamide], the midpoint of inhibition, the IC50, lay at 0.0463 nM.

For `[N-]=[N+]=NC[C@@H](NC(=O)c1ccc(-c2nc(C3CCOCC3)cnc2N)cc1F)c1cccc(Cl)c1` [Example 404, (S)-4-(3-amino-6-(tetrahydro-2H-pyran-4-yl)pyrazin-2-yl)-N-(2-azido-1-(3-chlorophenyl)ethyl)-2-fluorobenzamide], the IC50 was 0.115 nM.

`CC(=O)NC[C@@H](NC(=O)c1ccc(-c2nc([C@H]3CC[C@H](O)CC3)cnc2N)cc1F)c1cccc(Cl)c1` [Example 405, N-((S)-2-acetamido-1-(3-chlorophenyl)ethyl)-4-(3-amino-6-((1r,4S)-4-hydroxy-cyclohexyl)pyrazin-2-yl)-2-fluorobenzamide] registered an IC50 of 0.238 nM.

`CO[C@H]1CC[C@H](c2cnc(N)c(-c3ccc(C(=O)N[C@H](CNC(C)=O)c4cccc(Cl)c4)c(F)c3)n2)CC1` [Example 406, N-((S)-2-acetamido-1-(3-chlorophenyl)ethyl)-4-(3-amino-6-((1r,4S)-4-methoxy-cyclohexyl)pyrazin-2-yl)-2-fluorobenzamide]: the IC50 stood at 0.249 nM.

`COC(=O)NC[C@@H](NC(=O)c1ccc(-c2nc(C3CCOCC3)cnc2N)cc1F)c1cccc(Cl)c1` [Example 407, (S)-methyl (2-(4-(3-amino-6-(tetrahydro-2H-pyran-4-yl)pyrazin-2-yl)-2-fluoro-benzamido)-2-(3-chlorophenyl)ethyl)carbamate] had an IC50 of 0.333 nM.

As for `CC(=O)NC[C@@H](NC(=O)c1ccc(-c2nc(C3CCOCC3)cnc2N)cc1F)c1cc(F)cc(Br)c1` [Example 408, (S)-N-(2-acetamido-1-(3-bromo-5-fluorophenyl)ethyl)-4-(3-amino-6-(tetrahydro-2H-pyran-4-yl)pyrazin-2-yl)-2-fluorobenzamide], the midpoint of inhibition, the IC50, lay at 0.0201 nM.

`COC(=O)NC[C@@H](NC(=O)c1ccc(-c2nc(C3CCOCC3)cnc2N)cc1F)c1cccc(Br)c1` [Example 409, (S)-methyl (2-(4-(3-amino-6-(tetrahydro-2H-pyran-4-yl)pyrazin-2-yl)-2-fluoro-benzamido)-2-(3-bromophenyl)ethyl)carbamate] had an IC50 of 0.225 nM.

In the case of `COC(=O)NC[C@@H](NC(=O)c1ccc(-c2nc(C3CCOCC3)cnc2N)cc1F)c1cc(F)cc(Br)c1` [Example 410, (S)-methyl (2-(4-(3-amino-6-(tetrahydro-2H-pyran-4-yl)pyrazin-2-yl)-2-fluoro-benzamido)-2-(3-bromo-5-fluorophenyl)ethyl) carbamate], the IC50 amounted to 0.0943 nM.

In turn, `Nc1ncc(C2CCOCC2)nc1-c1ccc(C(=O)N[C@H](CNCCF)c2cc(F)cc(Br)c2)c(F)c1` [Example 411, (S)-4-(3-amino-6-(tetrahydro-2H-pyran-4-yl)pyrazin-2-yl)-N-(1-(3-bromo-5-fluorophenyl)-2-((2-fluoroethyl)amino)ethyl)-2-fluorobenzamide] displayed an IC50 of 0.0743 nM.

Regarding `Nc1ncc([C@H]2CC[C@H](O)CC2)nc1-c1ccc(C(=O)N[C@H](CNCCF)c2cc(F)cc(Br)c2)c(F)c1` [Example 412, 4-(3-amino-6-((1r,4S)-4-hydroxy-cyclohexyl)pyrazin-2-yl)-N-((S)-1-(3-bromo-5-fluorophenyl)-2-((2-fluoroethyl)amino)ethyl)-2-fluorobenzamide], half-maximal inhibition (IC50) was put at 0.374 nM.

For the molecule `NC[C@@H](NC(=O)c1ccc(-c2nc(C3CCOCC3)cnc2N)cc1F)c1cccc(Br)c1` [Example 414, (S)-N-(2-amino-1-(3-bromophenyl)ethyl)-4-(3-amino-6-(tetrahydro-2H-pyran-4-yl)pyrazin-2-yl)-2-fluorobenzamide], the IC50 is 0.02 nM.

In the case of `Nc1ncc(C2CCC(F)(F)CC2)nc1-c1ccc(C(=O)N[C@H](CO)c2cccc(Cl)c2)c(F)c1` [Example 435, (S)-4-(3-amino-6-(4,4-difluoro-cyclohexyl)pyrazin-2-yl)-N-(1-(3-chlorophenyl)-2-hydroxyethyl)-2-fluorobenzamide], it took 0.105 nM to reach half-maximal inhibition (IC50).

On to `Nc1ncc([C@H]2CC[C@H](O)CC2)nc1-c1ccc(C(=O)N[C@H](CO)c2cccc(Br)c2)c(F)c1` [Example 436, 4-(3-amino-6-((1r,4S)-4-hydroxy-cyclohexyl)pyrazin-2-yl)-N-((S)-1-(3-bromophenyl)-2-hydroxyethyl)-2-fluorobenzamide], for which the midpoint of inhibition, the IC50, lay at 0.0485 nM.

In turn, `Nc1ncc([C@H]2CC[C@@H](O)CC2)cc1-c1ccc(C(=O)N[C@H](CO)c2cccc(Cl)c2)c(F)c1` [Example 440, 4-(2-amino-5-((1s,4R)-4-hydroxy-cyclohexyl)pyridin-3-yl)-N-((S)-1-(3-chlorophenyl)-2-hydroxyethyl)-2-fluorobenzamide] came in with a concentration for half-maximal inhibition (IC50) of 0.0701 nM.

`COC(=O)N[C@H]1CC[C@H](c2cnc(N)c(-c3ccc(C(=O)N[C@H](CO)c4cc(F)cc(Br)c4)c(F)c3)n2)CC1` [Example 441, Methyl ((1S,4r)-4-(5-amino-6-(4-(((S)-1-(3-bromo-5-fluorophenyl)-2-hydroxyethyl)carbamoyl)-3-fluorophenyl)pyrazin-2-yl)cyclohexyl) carbamate] displayed an IC50 of 0.0559 nM.
